Reference: US12643859B2, “Pyridyl oxycarboxylic acid oxime derivative and preparation method therefor, weeding composition and application thereof” (Qingdao Kingagroot Chemical Compound Co., Ltd., priority 2018, dated 2026)

Test system: Monocotyledonous and dicotyledonous weed seeds and main crop seeds
Experiment: Post-emergence test experiment (Table 3, 1000 g a.i./ha)
Assay type: in vivo
Conditions: 3 weeks in greenhouse, fresh weight inhibition
Protocol: The above described growth inhibition rate is fresh weight inhibition rate.
Post-emergence test experiment: Monocotyledonous and dicotyledonous weed seeds and main crop seeds (i. e. wheat, corn, rice, soybean, cotton, oilseed, millet and sorghum.) were put into a plastic pot loaded with soil. Then covered with 0.5-2 cm soil, the seeds were allowed to grow in good greenhouse environment. The test plants were treated at 2-3 leaf stage 2 weeks after sowing. The test compounds of the invention were dissolved with acetone respectively, then added with tween-80, and using 1.5 liters per hectare of an emulsible concentrate of methyl oleate as a synergist, and diluted by certain amount of water to certain concentration. The solution was sprayed to the plants with a sprayer. Then the plants were cultured for 3 weeks in the greenhouse, and the experiment result of weed controlling effect was listed in tables 3-4.

## CC(Oc1nc(F)c(Cl)c(N)c1Cl)C(=O)ON=C1CCCCC1 (centres unmarked) [Compound 116]
  Activity level (growth inhibition rate) Digitaria sanguinalis: 5 (Level 5: the growth inhibition rate is greater than 85%)
  Activity level (growth inhibition rate) Echinochloa crusgalli: 5 (Level 5: the growth inhibition rate is greater than 85%)
  Activity level (growth inhibition rate) Galium spurium: 5 (Level 5: the growth inhibition rate is greater than 85%)
  Activity level (growth inhibition rate) Leptochloa chinensis: 5 (Level 5: the growth inhibition rate is greater than 85%)
  Activity level (growth inhibition rate) Monochoria Vaginalis: 5 (Level 5: the growth inhibition rate is greater than 85%)
  Activity level (growth inhibition rate) Murdannia triquetra: 5 (Level 5: the growth inhibition rate is greater than 85%)
  Activity level (growth inhibition rate) Setaria viridis: 5 (Level 5: the growth inhibition rate is greater than 85%)

## CC(Oc1nc(F)c(Cl)c(N)c1Cl)C(=O)ON=C(Br)c1ccc(C#N)cc1 (centres unmarked) [Compound 86]
  Activity level (growth inhibition rate) Digitaria sanguinalis: 5 (Level 5: the growth inhibition rate is greater than 85%)
  Activity level (growth inhibition rate) Echinochloa crusgalli: 5 (Level 5: the growth inhibition rate is greater than 85%)
  Activity level (growth inhibition rate) Galium spurium: 5 (Level 5: the growth inhibition rate is greater than 85%)
  Activity level (growth inhibition rate) Leptochloa chinensis: 5 (Level 5: the growth inhibition rate is greater than 85%)
  Activity level (growth inhibition rate) Monochoria Vaginalis: 5 (Level 5: the growth inhibition rate is greater than 85%)
  Activity level (growth inhibition rate) Murdannia triquetra: 5 (Level 5: the growth inhibition rate is greater than 85%)
  Activity level (growth inhibition rate) Setaria viridis: 5 (Level 5: the growth inhibition rate is greater than 85%)

## CSC(=NOC(=O)C(C)Oc1nc(F)c(Cl)c(N)c1Cl)c1ccc(SC)cc1 (centres unmarked) [Compound 89]
  Activity level (growth inhibition rate) Digitaria sanguinalis: 5 (Level 5: the growth inhibition rate is greater than 85%)
  Activity level (growth inhibition rate) Echinochloa crusgalli: 5 (Level 5: the growth inhibition rate is greater than 85%)
  Activity level (growth inhibition rate) Galium spurium: 5 (Level 5: the growth inhibition rate is greater than 85%)
  Activity level (growth inhibition rate) Leptochloa chinensis: 5 (Level 5: the growth inhibition rate is greater than 85%)
  Activity level (growth inhibition rate) Monochoria Vaginalis: 5 (Level 5: the growth inhibition rate is greater than 85%)
  Activity level (growth inhibition rate) Murdannia triquetra: 5 (Level 5: the growth inhibition rate is greater than 85%)
  Activity level (growth inhibition rate) Setaria viridis: 5 (Level 5: the growth inhibition rate is greater than 85%)

## CSC(=O)C(=NOC(=O)C(C)Oc1nc(F)c(Cl)c(N)c1Cl)C(=O)NCc1ccc(Cl)cc1 (centres unmarked) [Compound 102]
  Activity level (growth inhibition rate) Digitaria sanguinalis: 5 (Level 5: the growth inhibition rate is greater than 85%)
  Activity level (growth inhibition rate) Echinochloa crusgalli: 5 (Level 5: the growth inhibition rate is greater than 85%)
  Activity level (growth inhibition rate) Galium spurium: 5 (Level 5: the growth inhibition rate is greater than 85%)
  Activity level (growth inhibition rate) Leptochloa chinensis: 5 (Level 5: the growth inhibition rate is greater than 85%)
  Activity level (growth inhibition rate) Monochoria Vaginalis: 5 (Level 5: the growth inhibition rate is greater than 85%)
  Activity level (growth inhibition rate) Murdannia triquetra: 5 (Level 5: the growth inhibition rate is greater than 85%)
  Activity level (growth inhibition rate) Setaria viridis: 5 (Level 5: the growth inhibition rate is greater than 85%)

## CC(Oc1nc(F)c(Cl)c(N)c1Cl)C(=O)ON=C(c1ccccc1)c1ccc(C(F)(F)F)cc1 (centres unmarked) [Compound 81]
  Activity level (growth inhibition rate) Digitaria sanguinalis: 5 (Level 5: the growth inhibition rate is greater than 85%)
  Activity level (growth inhibition rate) Echinochloa crusgalli: 5 (Level 5: the growth inhibition rate is greater than 85%)
  Activity level (growth inhibition rate) Galium spurium: 5 (Level 5: the growth inhibition rate is greater than 85%)
  Activity level (growth inhibition rate) Leptochloa chinensis: 5 (Level 5: the growth inhibition rate is greater than 85%)
  Activity level (growth inhibition rate) Monochoria Vaginalis: 5 (Level 5: the growth inhibition rate is greater than 85%)
  Activity level (growth inhibition rate) Murdannia triquetra: 5 (Level 5: the growth inhibition rate is greater than 85%)
  Activity level (growth inhibition rate) Setaria viridis: 5 (Level 5: the growth inhibition rate is greater than 85%)

## CC(Oc1nc(F)c(Cl)c(N)c1Cl)C(=O)ON=C(C(=O)N(C)C)c1ccccc1 (centres unmarked) [Compound 99]
  Activity level (growth inhibition rate) Digitaria sanguinalis: 5 (Level 5: the growth inhibition rate is greater than 85%)
  Activity level (growth inhibition rate) Echinochloa crusgalli: 5 (Level 5: the growth inhibition rate is greater than 85%)
  Activity level (growth inhibition rate) Galium spurium: 5 (Level 5: the growth inhibition rate is greater than 85%)
  Activity level (growth inhibition rate) Leptochloa chinensis: 5 (Level 5: the growth inhibition rate is greater than 85%)
  Activity level (growth inhibition rate) Monochoria Vaginalis: 5 (Level 5: the growth inhibition rate is greater than 85%)
  Activity level (growth inhibition rate) Murdannia triquetra: 5 (Level 5: the growth inhibition rate is greater than 85%)
  Activity level (growth inhibition rate) Setaria viridis: 5 (Level 5: the growth inhibition rate is greater than 85%)

## CC(CCCl)=NOC(=O)C(C)Oc1nc(C)c(C)c(N)c1C (centres unmarked) [Compound 19]
  Activity level (growth inhibition rate) Digitaria sanguinalis: 5 (Level 5: the growth inhibition rate is greater than 85%)
  Activity level (growth inhibition rate) Echinochloa crusgalli: 5 (Level 5: the growth inhibition rate is greater than 85%)
  Activity level (growth inhibition rate) Galium spurium: 5 (Level 5: the growth inhibition rate is greater than 85%)
  Activity level (growth inhibition rate) Leptochloa chinensis: 5 (Level 5: the growth inhibition rate is greater than 85%)
  Activity level (growth inhibition rate) Monochoria Vaginalis: 5 (Level 5: the growth inhibition rate is greater than 85%)
  Activity level (growth inhibition rate) Murdannia triquetra: 5 (Level 5: the growth inhibition rate is greater than 85%)
  Activity level (growth inhibition rate) Setaria viridis: 5 (Level 5: the growth inhibition rate is greater than 85%)

## CC(=NOC(=O)C(C)Oc1nc(F)c(Cl)c(N)c1Cl)c1ccc([N+](=O)[O-])cc1 (centres unmarked) [Compound 71]
  Activity level (growth inhibition rate) Digitaria sanguinalis: 5 (Level 5: the growth inhibition rate is greater than 85%)
  Activity level (growth inhibition rate) Echinochloa crusgalli: 5 (Level 5: the growth inhibition rate is greater than 85%)
  Activity level (growth inhibition rate) Galium spurium: 5 (Level 5: the growth inhibition rate is greater than 85%)
  Activity level (growth inhibition rate) Leptochloa chinensis: 5 (Level 5: the growth inhibition rate is greater than 85%)
  Activity level (growth inhibition rate) Monochoria Vaginalis: 5 (Level 5: the growth inhibition rate is greater than 85%)
  Activity level (growth inhibition rate) Murdannia triquetra: 5 (Level 5: the growth inhibition rate is greater than 85%)
  Activity level (growth inhibition rate) Setaria viridis: 5 (Level 5: the growth inhibition rate is greater than 85%)

## CC(Oc1nc(F)c(Cl)c(N)c1Cl)C(=O)ON=C(c1ccccc1)c1cccc(Cl)c1 (centres unmarked) [Compound 79]
  Activity level (growth inhibition rate) Digitaria sanguinalis: 5 (Level 5: the growth inhibition rate is greater than 85%)
  Activity level (growth inhibition rate) Echinochloa crusgalli: 5 (Level 5: the growth inhibition rate is greater than 85%)
  Activity level (growth inhibition rate) Galium spurium: 5 (Level 5: the growth inhibition rate is greater than 85%)
  Activity level (growth inhibition rate) Leptochloa chinensis: 5 (Level 5: the growth inhibition rate is greater than 85%)
  Activity level (growth inhibition rate) Monochoria Vaginalis: 5 (Level 5: the growth inhibition rate is greater than 85%)
  Activity level (growth inhibition rate) Murdannia triquetra: 5 (Level 5: the growth inhibition rate is greater than 85%)
  Activity level (growth inhibition rate) Setaria viridis: 5 (Level 5: the growth inhibition rate is greater than 85%)

## CC(Oc1nc(F)c(Cl)c(N)c1Cl)C(=O)ON=C(c1ccccc1)c1ccc(C2CC2)cc1 (centres unmarked) [Compound 80]
  Activity level (growth inhibition rate) Digitaria sanguinalis: 5 (Level 5: the growth inhibition rate is greater than 85%)
  Activity level (growth inhibition rate) Echinochloa crusgalli: 5 (Level 5: the growth inhibition rate is greater than 85%)
  Activity level (growth inhibition rate) Galium spurium: 5 (Level 5: the growth inhibition rate is greater than 85%)
  Activity level (growth inhibition rate) Leptochloa chinensis: 5 (Level 5: the growth inhibition rate is greater than 85%)
  Activity level (growth inhibition rate) Monochoria Vaginalis: 5 (Level 5: the growth inhibition rate is greater than 85%)
  Activity level (growth inhibition rate) Murdannia triquetra: 5 (Level 5: the growth inhibition rate is greater than 85%)
  Activity level (growth inhibition rate) Setaria viridis: 5 (Level 5: the growth inhibition rate is greater than 85%)

## COc1ccc(CNC(=O)C(C)=NOC(=O)C(C)Oc2nc(F)c(Cl)c(N)c2Cl)cc1 (centres unmarked) [Compound 103]
  Activity level (growth inhibition rate) Digitaria sanguinalis: 5 (Level 5: the growth inhibition rate is greater than 85%)
  Activity level (growth inhibition rate) Echinochloa crusgalli: 5 (Level 5: the growth inhibition rate is greater than 85%)
  Activity level (growth inhibition rate) Galium spurium: 5 (Level 5: the growth inhibition rate is greater than 85%)
  Activity level (growth inhibition rate) Leptochloa chinensis: 5 (Level 5: the growth inhibition rate is greater than 85%)
  Activity level (growth inhibition rate) Monochoria Vaginalis: 5 (Level 5: the growth inhibition rate is greater than 85%)
  Activity level (growth inhibition rate) Murdannia triquetra: 5 (Level 5: the growth inhibition rate is greater than 85%)
  Activity level (growth inhibition rate) Setaria viridis: 5 (Level 5: the growth inhibition rate is greater than 85%)
